Results reported in patent EP0046707B1, “Derivatives of 4-aminobutyric acid and the medicines especially active on the central nervous system containing them” (priority 1980, dated 1982).
Where two headings read alike, the source gives them in different places.

Columns and labels:
[1] = Acute toxicity (mortality over 24 h); settings: in vivo, po, mouse, observed 24 h
Method: Les produits à étudier sont administrés par voie orale aux doses de 500 et 1 000 mg/kg à des lots de souris. On observe les souris pendant 24 h et note la mortalité.
Les résultats exprimés en pourcentage de mortalité figurent dans le tableau XI ci-après.

souris [2] = assay: Potentiation of pentobarbital narcosis (loss of righting reflex); format: in vivo; settings: mouse; for Pourcentage d'animaux en narcose à 500 mg/kg p. os: 500 mg/kg p. os 1 h before pentobarbital 20 mg/kg i.p.; for ED50: po, p. os 1 h before pentobarbital 20 mg/kg i.p., unit not given for DE 50, read-out: dose (p. os) provoquant 50 % d'induction de narcose (DE 50)
Method: Les produits à étudier ont été administrés per os chez la souris à la dose de 500 mg/kg, 1 h avant le pentobarbital injecté par voie intrapéritonéale à raison de 20 mg/kg.
On détermine le pourcentage des animaux ayant perdu le réflexe de retournement. Les résultats sont exprimés en pourcentage ou, dans quelques cas, en dose efficace 50 (DE 50) ou dose provoquant la narcose chez 50 % des animaux traités.
Les résultats figurent dans le tableau VI ci-après.

souris [3] = assay: Actography (locomotor activity, two perpendicular light beams); format: in vivo; settings: mouse, 500 mg/kg oral; grouping in words
Method: La mesure de l'actographie est effectuée chez la souris 45 min. après l'administration du produit. On opère sur des lots de 12 animaux, chacun d'eux étant isolé pendant 10 min. avant la mesure. Le comptage des scores est effectué par coupure de deux faisceaux lumineux perpendiculaires.
Dans le tableau IV ci-après sont rassemblés les résultats obtenus avec divers produits de l'invention administrés à la dose de 500 mg/kg par voie orale. Les résultats sont exprimés en pourcentage de variation des scores obtenus par rapport à des animaux témoins non traités.
On peut constater que les produits se répartissent en deux groupes : • ceux provoquant de l'hypomotilité tels que 40217, 40039, 40271, 40272, 40319; dans le cas où les animaux traités présentent une perte du réflexe de retournement, ce qui traduit l'effet de narcose propre du produit, on a noté PRR; • ceux provoquant de l'hypermotilité, tels que 40142, 40398, 40397, 40404, 40253, 40355, 40209; pour préciser les résultats obtenus, l'étude pour deux produits a été reprise en effet-dose suivant le même protocole. • Les résultats obtenus figurent dans le tableau V ci-après.

souris [4] = assay: Anticonvulsant effect against electroshock seizures; format: in vivo; settings: 1 h; mouse, electroshock 12.5 V for 0.5 s, 60 min after oral dosing; read-out: Dose efficace médiane de protection des crises toniques (DE 50) Electrochoc
Method: (§1) L'effet anticonvulsivant a été déterminé vis-à-vis des crises convulsives provoquées par l'électrochoc ou par la bicuculline.
L'électrochoc (12,5 V pendant 0,5 s) est effectué chez la souris 60 min après l'administration du produit par voie orale.
(§2) En opérant sur divers lots d'animaux avec des doses différentes du produit à étudier, on peut déterminer la dose efficace médiane (DE 50).
(§3) Les résultats sont rassemblés dans le tableau VIII ci-après et montrent les propriétés anticonvulsivan- tes nettes des produits étudiés.

souris [5] = assay: Anticonvulsant effect against bicuculline-induced tonic seizures; format: in vivo; settings: 1 h; mouse, bicuculline 1 mg/kg i.v. 60 min after oral dosing; read-out: Dose efficace médiane de protection des crises toniques (DE 50) Bicuculline
Method: as §1
La bicuculline est administrée à la souris par voie intraveineuse à raison de 1 mg/kg, 60 min après le produit à étudier donné per os. On note l'effet protecteur obtenu vis-à-vis des crises toniques.
as §2, §3

[6] = test system: acide homovanillique (HVA); assay: Effect on central dopaminergic activity (homovanillic acid accumulation in whole brain); format: in vivo, souris; settings: mouse whole brain, 500 mg/kg p.os
Method: L'effet des produits sur l'activité dopaminergique centrale a été étudié par la mesure de l'accumulation de l'acide homovanillique sur une période de 24 h après l'administration des produits chez la souris.
Le taux d'acide homovanillique (HVA) est évalué dans le cerveau entier, les animaux reçoivent une injection de probenecid (200 mg/kg i.p.) 1 h 30 min avant le sacrifice (lot de 10 animaux).

[7] = 500 mg/kg p. os, read-out: p. cent de mortalité à 500 mg/kg p. os
[8] = 1000 mg/kg p. os, read-out: p. cent de mortalité à 1000 mg/kg p. os

Structure (SMILES) | mortality at 24 h [1, 7] [%] | mortality at 24 h [1, 8] [%] | Pourcentage d'animaux en narcose à 500 mg/kg p. os (souris [2]) [%] | hypomotilité / hypermotilité (souris [3]) | ED50 (souris [5]) [mg/kg] | further results
CCCCNC(=O)CCCNC(=O)CC(C)C [40 417] | 0 | 20 |  |  |  | 
CCCCNC(=O)CCCNC(=O)C1CC1 [40 443] | 0 | 0 | 40 |  |  | 
CCCCNC(=O)CCNC(=O)CCC [40 253] | 0 | 0 | 50 | hypermotilité | < 500 | ED50 (souris [4]): 500 mg/kg
CCCC(=O)NCCCC(=O)NCC [40 463] | 0 | 0 |  |  | 380 | 
CCCCNC(=O)CCCNC(=O)CCC [40 142] | 0 | 0 |  | hypermotilité | 325 | ED50 (souris [2]): 297 mg/kg; ED50 (souris [4]): 150 mg/kg; Taux de HVA en ([6]; 2 h): 379 ± 11 ng/g; Taux de HVA en ([6]; 4 h): 793 ± 52 ng/g; Taux de HVA en ([6]; 6 h): 571 ± 23 ng/g; Taux de HVA en ([6]; 24 h): 290 ± 16 ng/g; Taux de HVA en ([6]; time 0 (baseline)): 521 ± 29 ng/g
CCCC(=O)NCCCC(=O)NC1CCCC1 [40 209] | 0 | 20 |  | hypermotilité |  | 
CCCCN(CCCC)C(=O)CCNC(=O)CCC [40 271] | 0 | 100 | 100 | hypomotilité | < 500 | ED50 (souris [4]): 500 mg/kg
CCCNC(=O)CCCNC(=O)CC(C)C [40 418] | 0 | 0 |  |  | 300 | 
CCCCNC(=O)C(C)CCNC(=O)CCC (stereo not drawn) [40 404] | 0 | 0 | 40 | hypermotilité |  | 
CCCCCN(CCCCC)C(=O)CCCNC(=O)CCC [40 984] | 0 | 100 | 60 |  |  | 
CCCCN(CCCC)C(=O)CCNC(=O)C(C)(C)C [40 319] | 0 | 0 |  | hypomotilité |  | ED50 (souris [2]): 175 mg/kg
CCCC(=O)NCCCC(=O)NC(C)(C)CC [40 989] | 0 | 80 | 50 |  |  | 
CCCCNC(=O)CCCNC(=O)C(C)(C)C [40 254] | 0 | 20 | 50 |  | < 500 | 
CCCCN(CCCC)C(=O)CCCNC(=O)C(C)C [40 462] | 0 | 0 | 30 |  | 150 | ED50 (souris [4]): 500 mg/kg
CCCCCCNC(=O)CCCNC(=O)CCC [40 947] | 0 | 0 |  |  | 250 | ED50 (souris [4]): 400 mg/kg
CCCC(=O)NCCCC(=O)N1CCOCC1 [40 206] | 0 | 0 | 0 |  |  | 
CCCC(=O)NCCCC(=O)NC(C)C [40 466] | 0 | 0 | 30 |  |  | 
CCCC(=O)NCCCC(=O)N(CCC)CCC [40 217] | 0 | 0 | 0 | hypomotilité |  | 
CCCCN(CCCC)C(=O)CCCNC(=O)C(C)(C)C [40 272] | 0 | 0 | 72 | hypomotilité |  | 
CCCC(=O)NCCCC(N)=O [40 401, Dioxo-2,7 diaza-1,6 décane] | 0 | 0 | 0 |  |  | 
CCCCNC(=O)CC(C)NC(=O)CCC (stereo not drawn) [40 395] | 0 | 20 | 70 |  |  | 
CCCNC(=O)CCCNC(=O)CCC [40 398] | 0 | 0 |  | hypermotilité |  | ED50 (souris [2]): 350 mg/kg
CCCCNC(=O)CCC(C)NC(=O)CCC (stereo not drawn) [40 397] | 0 | 20 | 100 | hypermotilité |  | 
CCCC(=O)NCCCC(=O)NCc1ccccc1 [40 316] | 0 | 0 | 70 |  |  | 
CCCCCNC(=O)CCCNC(=O)CCC [40 521] |  |  |  |  | 250 | ED50 (souris [4]): 180 mg/kg
CCCCNC(=O)CCNC(=O)C(C)(C)C [40 318] |  |  | 90 |  |  | 
CCCC(=O)NCCCC(=O)N(C(C)CC)C(C)CC (stereo not drawn) [40 216] | 0 | 100 | 100 |  |  | 
CCCCNC(=O)CCCNC(=O)C(C)C [40 467] | 0 | 0 |  |  | 150 | ED50 (souris [4]): < 500 mg/kg
